Data: patent US8962639B2, “Potassium channel modulators” (AbbVie Inc., priority 2009, dated 2015)

Biological target: T1, human KCNQ2 and KCNQ3 (Homo sapiens, UniProt O43525+O43526)
T1 construct: expressed in transfected cells; host or cells: HEK293
Assay: KCNQ 2/3 channel activation, thallium flux FLIPR assay (BTC-AM dye) in HEK293 cells
Type: cell-based
Conditions: for Emax: HEK293, maximum response relative to response of retigabine at 10 μM set at 100%, read-out: Max response; for EC50: HEK293 cells stably expressing human KCNQ2 and KCNQ3, compound incubated 4 minutes, Tl+ flux fluorescence; for Max response: maximum response relative to response of retigabine at 10 μM set at 100%
Description: The following example describes the assay that can be used to identify compounds that activate KCNQ 2/3 channels.
HEK293 cells stably expressing human KCNQ2 and KCNQ3 were seeded in 96-well, black-walled, clear-bottomed, poly-D-lysine coated plates (BD Biosciences, Bedford, Mass.) at a density of 1×10^5 cells per well 24 hours before the assay. On the assay day, BTC-AM dye (Invitrogen, Carlsbad, Calif.) was loaded into the cells by replacing the cell culture medium with 100 μL/well of 4 μM dye in DPBS. Dye loading was allowed to proceed for 2 hours at room temperature and then cells were washed twice in 100 μL/well of assay buffer (in mM: 10 HEPES pH 7.3, 5 glucose, 140 Na-gluconate, 2.5 K-gluconate, 3.6 Ca-gluconate, 2 MgSO4, 0.1 Ouabain) to remove unloaded dye. Cells were incubated in 50 μL of assay buffer before loading onto a FLIPR system (Molecular Devices, Sunnyvale, Calif.). Various concentrations of compounds to be assayed were added to the cells in 50 μL of assay buffer and incubated for 4 minutes. The fluorescence signal was initiated by adding 100 μL of assay buffer containing 6 mM TlNO3 and 10 mM K2SO4. Fluors were excited using the 488-nm line of an argon laser and emission was filtered using a 540±30 nm bandpass filter. Fluorescent signals were recorded for 3 minutes. Responses over baseline values were plotted versus concentrations of test compounds to obtain an EC50 value. The maximum response for each test compound was determined relative to the response produced at 10 μM by retigabine. The maximum response of retigabine at 10 μM was set at 100%.

T1 sequence (O43526 whole entry): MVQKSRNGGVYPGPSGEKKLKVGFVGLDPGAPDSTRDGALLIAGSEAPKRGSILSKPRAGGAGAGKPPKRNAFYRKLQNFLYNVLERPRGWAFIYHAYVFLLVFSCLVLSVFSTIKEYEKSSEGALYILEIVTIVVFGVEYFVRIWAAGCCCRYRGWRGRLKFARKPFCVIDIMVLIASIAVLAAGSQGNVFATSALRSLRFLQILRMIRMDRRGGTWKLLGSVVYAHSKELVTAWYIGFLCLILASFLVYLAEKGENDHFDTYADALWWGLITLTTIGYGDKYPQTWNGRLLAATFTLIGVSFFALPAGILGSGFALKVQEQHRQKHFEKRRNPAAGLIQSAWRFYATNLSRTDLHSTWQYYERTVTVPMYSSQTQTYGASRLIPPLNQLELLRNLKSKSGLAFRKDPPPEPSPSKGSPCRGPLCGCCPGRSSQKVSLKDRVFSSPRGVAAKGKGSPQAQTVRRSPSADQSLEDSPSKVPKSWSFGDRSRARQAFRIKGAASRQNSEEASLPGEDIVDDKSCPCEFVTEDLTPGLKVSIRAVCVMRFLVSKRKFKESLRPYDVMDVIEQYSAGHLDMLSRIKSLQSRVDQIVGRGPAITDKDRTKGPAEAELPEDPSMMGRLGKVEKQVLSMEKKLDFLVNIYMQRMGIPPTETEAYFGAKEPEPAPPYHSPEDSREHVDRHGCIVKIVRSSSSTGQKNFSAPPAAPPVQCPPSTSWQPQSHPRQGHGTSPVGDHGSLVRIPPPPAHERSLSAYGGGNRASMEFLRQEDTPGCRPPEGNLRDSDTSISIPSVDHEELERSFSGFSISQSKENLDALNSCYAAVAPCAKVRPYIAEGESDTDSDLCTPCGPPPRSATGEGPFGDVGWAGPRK
T1 sequence (O43525 whole entry): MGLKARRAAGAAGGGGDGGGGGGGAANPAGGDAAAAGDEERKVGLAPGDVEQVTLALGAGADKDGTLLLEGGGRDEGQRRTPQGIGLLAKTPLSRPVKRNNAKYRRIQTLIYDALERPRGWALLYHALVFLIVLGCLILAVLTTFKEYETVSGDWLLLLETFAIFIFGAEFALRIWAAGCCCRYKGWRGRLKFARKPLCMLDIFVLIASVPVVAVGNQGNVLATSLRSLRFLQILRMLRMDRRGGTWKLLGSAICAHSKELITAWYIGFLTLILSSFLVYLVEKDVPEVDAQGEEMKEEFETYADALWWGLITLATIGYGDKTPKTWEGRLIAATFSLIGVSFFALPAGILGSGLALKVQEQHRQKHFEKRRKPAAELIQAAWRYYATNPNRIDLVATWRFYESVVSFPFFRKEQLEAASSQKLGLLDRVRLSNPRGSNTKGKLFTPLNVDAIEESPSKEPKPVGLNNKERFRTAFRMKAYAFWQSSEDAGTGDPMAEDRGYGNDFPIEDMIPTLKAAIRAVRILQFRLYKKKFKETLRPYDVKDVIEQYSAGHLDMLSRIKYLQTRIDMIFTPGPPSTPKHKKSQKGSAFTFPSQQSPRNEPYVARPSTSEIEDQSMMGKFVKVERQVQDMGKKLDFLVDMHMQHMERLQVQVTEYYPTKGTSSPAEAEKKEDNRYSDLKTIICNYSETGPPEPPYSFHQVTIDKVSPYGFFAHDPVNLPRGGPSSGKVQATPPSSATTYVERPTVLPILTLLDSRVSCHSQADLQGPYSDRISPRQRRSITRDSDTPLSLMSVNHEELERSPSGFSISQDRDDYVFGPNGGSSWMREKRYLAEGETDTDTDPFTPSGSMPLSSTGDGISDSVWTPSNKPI

| Structure (SMILES) | Emax [%] | EC50 [nM] | Max response [%] |
| --- | --- | --- | --- |
| Cc1sc2nc(C)n(NC(=O)CC34CC5CC(CC(C5)C3)C4)c(=O)c2c1C [Example 49, 2-(1-adamantyl)-N-(2,5,6-trimethyl-4-oxothieno[2,3-d]pyrimidin-3(4H)-yl)acetamide] | 65.2 | 779 |  |
| Cc1sc2nc(C)n(NC(=O)CC34CC5CC(CC(C5)C3)C4)c(=O)c2c1-c1ccccc1 [Example 46, 2-(1-adamantyl)-N-(2,6-dimethyl-4-oxo-5-phenylthieno[2,3-d]pyrimidin-3(4H)-yl)acetamide] | 130 | 454 |  |
| CC(C)c1nc2ccccc2c(=O)n1NC(=O)CC1CC2CCC1C2 (racemic) [Example 42, (±)-2-[(endo)-bicyclo[2.2.1]hept-2-yl]-N-(2-isopropyl-4-oxoquinazolin-3(4H)-yl)acetamide] |  | 86.8 | 150 |
| CC(C)c1nc2ccccc2c(=O)n1NC(=O)CC12CC3CC(CC(Cl)(C3)C1)C2 [Example 21, 2-[3-chloro-1-adamantyl]-N-(2-isopropyl-4-oxoquinazolin-3(4H)-yl)acetamide] | 132 | 403 |  |
| O=C(Nn1c(-c2ccccc2)nc2ccccc2c1=O)[C@@H]1[C@H]2[C@@H]3CC[C@@H](C3)[C@@H]12 [Example 39, (exo,exo)-N-(4-oxo-2-phenylquinazolin-3(4H)-yl)tricyclo[3.2.1.0^2,4]octane-3-carboxamide] | -23.5 | > 30000 |  |
| Cc1nc2sc3c(c2c(=O)n1NC(=O)CC12CC4CC(CC(C4)C1)C2)CCCCC3 [Example 48, 2-(1-adamantyl)-N-(2-methyl-4-oxo-6,7,8,9-tetrahydro-4H-cyclohepta[4,5]thieno[2,3-d]pyrimidin-3(5H)-yl)acetamide] | 89.8 | 10900 |  |
| CC(C)c1nc2ccccc2c(=O)n1NC(=O)CCC12CC3CC(CC(C3)C1)C2 [Example 13, 3-(1-adamantyl)-N-(2-isopropyl-4-oxoquinazolin-3(4H)-yl)propanamide] | 172 | 399 |  |
| CC(=O)Nn1c(C23CC4CC(CC2C4)C3)nc2ccccc2c1=O [Example 4, N-(2-hexahydro-2,5-methanopentalen-3a(1H)-yl-4-oxoquinazolin-3(4H)-yl)acetamide] | 60.4 | 2720 |  |
| O=C(CC12CC3CC(CC(C3)C1)C2)Nn1cnc2scc(-c3ccc(F)cc3)c2c1=O [Example 27, 2-(1-adamantyl)-N-[5-(4-fluorophenyl)-4-oxothieno[2,3-d]pyrimidin-3(4H)-yl]acetamide] | 199 | 846 |  |
| CC(C)c1nc2ccccc2c(=O)n1NC(=O)[C@@H]1C[C@@H]2C=C[C@H]1C2 (racemic) [Example 31, (±)-(endo)-N-(2-isopropyl-4-oxoquinazolin-3(4H)-yl)bicyclo[2.2.1]hept-5-ene-2-carboxamide] | 140 | 415 |  |
| Cc1cc2c(=O)n(NC(=O)CC34CC5CC(CC(C5)C3)C4)c(C)nc2s1 [Example 47, 2-(1-adamantyl)-N-(2,6-dimethyl-4-oxothieno[2,3-d]pyrimidin-3(4H)-yl)acetamide] | 56.7 | 652 |  |
| CCc1nc2ccccc2c(=O)n1NC(=O)C[C@@H]1C[C@@H]2CC[C@@H](C2)C1 [Example 55, endo 2-[bicyclo[3.2.1]oct-3-yl]-N-(2-ethyl-4-oxoquinazolin-3(4H)-yl)acetamide] | 150 | 417 |  |
| CCc1nc2sccc2c(=O)n1NC(=O)CC1CC2CCC1C2 (racemic) [Example 24, (±)-exo-2-bicyclo[2.2.1]hept-2-yl-N-(2-ethyl-4-oxothieno[2,3-d]pyrimidin-3(4H)-yl)acetamide] | 158 | 1130 |  |
| CCc1nc2ccccc2c(=O)n1NC(=O)C12CC3CC(CC(C3)O1)C2 [Example 54, N-(2-ethyl-4-oxoquinazolin-3(4H)-yl)-2-oxatricyclo[3.3.1.1^3,7]decane-1-carboxamide] | 5.5 | > 31600 |  |
| CC(C)c1nc2ccccc2c(=O)n1NC(=O)CC1CC2CCC1C2 (racemic) [Example 11, (±)-exo-2-bicyclo[2.2.1]hept-2-yl-N-(2-isopropyl-4-oxoquinazolin-3(4H)-yl)acetamide] |  | 90.6 | 175 |
| O=C(Nn1c(-c2ccccc2)nc2ccccc2c1=O)C1CC2CCC1C2 (racemic) [Example 23, (±)-endo-N-(4-oxo-2-phenylquinazolin-3(4H)-yl)bicyclo[2.2.1]heptane-2-carboxamide] | 34.3 | 540 |  |
| Cc1nc2cc(Cl)ccc2c(=O)n1NC(=O)CC12CC3CC(CC(C3)C1)C2 [Example 35, 2-(1-adamantyl)-N-(7-chloro-2-methyl-4-oxoquinazolin-3(4H)-yl)acetamide] | 20.8 | > 30000 |  |
| CCc1nc2sccc2c(=O)n1NC(=O)CC12CC3CC(CC(Cl)(C3)C1)C2 [Example 52, 2-[3-chloro-1-adamantyl]-N-(2-ethyl-4-oxothieno[2,3-d]pyrimidin-3(4H)-yl)acetamide] | 109 | 7910 |  |
| O=C(Nn1c(-c2ccccc2)nc2ccccc2c1=O)[C@@H]1C[C@@H]2C=C[C@H]1C2 (racemic) [Example 33, (±)-(endo)-N-(4-oxo-2-phenylquinazolin-3(4H)-yl)bicyclo[2.2.1]hept-5-ene-2-carboxamide] | 65.4 | 840 |  |
| Cc1nc2sc3c(c2c(=O)n1NC(=O)CC12CC4CC(CC(C4)C1)C2)CCC3 [Example 45, 2-(1-adamantyl)-N-(2-methyl-4-oxo-6,7-dihydro-4H-cyclopenta[4,5]thieno[2,3-d]pyrimidin-3(5H)-yl)acetamide] | 19.6 | > 31600 |  |
| O=C(CCC12CC3CC(CC(C3)C1)C2)Nn1c(-c2ccccc2)nc2ccccc2c1=O [Example 15, 3-(1-adamantyl)-N-(4-oxo-2-phenylquinazolin-3(4H)-yl)propanamide] | 79.7 | 309 |  |
| CCc1nc2ccccc2c(=O)n1NC(=O)CC12CC3CC(CC(C3)C1)C2 [Example 9, 2-(1-adamantyl)-N-(2-ethyl-4-oxoquinazolin-3(4H)-yl)acetamide] | 124 | 115 |  |
| CC(C)c1nc2ccccc2c(=O)n1NC(=O)CC12CC3CC(CC(C3)C1)C2 [Example 5, 2-(1-adamantyl)-N-(2-isopropyl-4-oxoquinazolin-3(4H)-yl)acetamide] | 122 | 148 |  |
| O=C(CC12CC3CC(CC(C3)C1)C2)Nn1c(=O)[nH]c2ccccc2c1=O [Example 28, 2-(1-adamantyl)-N-(2,4-dioxo-1,4-dihydroquinazolin-3(2H)-yl)acetamide] | 93.3 | 1750 |  |
| O=C(Nn1c(-c2ccccc2)nc2ccccc2c1=O)C1C2CC3CC(C2)CC1C3 (centres unmarked) [Example 38, N-(4-oxo-2-phenylquinazolin-3(4H)-yl)adamantane-2-carboxamide] | -43.5 | > 30000 |  |
| O=C(C[C@H]1C[C@@H]2CC[C@H]1C2)Nn1c(C2CC2)nc2cc(F)ccc2c1=O (racemic) [Example 61, (±)-2-[(exo)-bicyclo[2.2.1]hept-2-yl]-N-(2-cyclopropyl-7-fluoro-4-oxoquinazolin-3(4H)-yl)acetamide] | 145 | 30.7 |  |
| O=C(CC12CC3CC(CC(C3)C1)C2)Nn1c(COc2ccccc2)nc2ccccc2c1=O [Example 25, 2-(1-adamantyl)-N-[4-oxo-2-(phenoxymethyl)quinazolin-3(4H)-yl]acetamide] | 118 | 3010 |  |
| CC(C)c1nc2ccccc2c(=O)n1NC(=O)[C@@H]1[C@H]2[C@@H]3CC[C@@H](C3)[C@@H]12 [Example 59, (exo,exo)-N-(2-isopropyl-4-oxoquinazolin-3(4H)-yl)tricyclo[3.2.1.0^2,4]octane-3-carboxamide] | 16.5 | > 31600 |  |
